Reference: patent US5192799A, “Coumaran group containing amine compounds and their acid addition salts and quaternary ammonium salts and the use thereof as anti arrhythmic agents and as psychotropic agents” (Mitsui Petrochemical Industries, Ltd., priority 1987, dated 1993)

Columns and labels:
serotonine 2 receptor = target: T1, serotonine 2 receptor (Rattus norvegicus, UniProt P14842); test: [3H]ketanserin binding assay (affinity for serotonine 2 receptor); parameters: species or system Wistar male rat; settings: rat frontal cortex, 1 nM [3H] ketanserin, 37° C., 10 minutes
T1 construct: frontal cortex fraction prepared from the brain of a Wistar male rat; from tissue; host or cells: rat brain frontal cortex (Wistar, male), membrane fraction
Procedure: (§1) Striatal membranes fractions were prepared from a rat brain, and the affinity of the compounds of this invention on dopamine 2 receptors was determined by using [^3 H] spiperone assay from membranes fractions as an index. Moreover, frontal cortex membranes were prepared from a rat brain, and the affinity of the test drugs on serotonine 2 receptor was determined by using [^3 H] ketenserin binding assay. It was shown that the compounds of general formula (1) of the invention have marked anti-dopamine activity and anti-serotonine activity.
[^3 H] ketanserin binding assay
The affinity of the compound of the invention was determined on the basis of the ability to substitute [^3 H] ketanserin from a frontal cortex fraction prepared from the brain of a Wistar male rat.
(§2) The rat was decapitated, and the brain was obtained. The frontal cortex was homogenized in 40 volumes of 50 mM Tris-HCl buffer (pH 7.6), and then centrifuged. The pellets were again homogenized in 100 volumes of the same buffer, and used in a binding test. The binding test was conducted by the following procedure.
(§3) The frontal cortex (original tissue weight 1 mg/ml), 100 microliters of a test drug and 1 nM of [^3 H] ketanserin were incubated at 37° C. for 10 minutes in 50 mM Tris-HCl buffer (pH 7.6). Then, the reaction mixture was suction-filtered through a glass fiber filter (Watmann GF/B) and washed with a buffer three times.
(§4) The filter was put in a scintillation cocktail (ACSII, Amersham Co.), and after mixing, left to stand overnight. The radioactivity held on the filter was measured by a liquid scintillation counter. The nonspecific binding was measured in the presence of 1 μM of methysergide. The concentration of the test drug which inhibited 50% of a specific binding was determined from the graph and defined as IC5. Ki was calculated from the following equation. [formula]

dopamine 2 receptor = target: T2, dopamine 2 receptor (Rattus norvegicus, UniProt P61169); test: [3H]spiperone binding assay (affinity for dopamine 2 receptor); parameters: species or system Wistar-strain male rat; settings: rat striatal membranes, 0.5 nM [3H] spiperone, 37° C., 10 minutes
T2 construct: membrane fractions prepared from the brain a Wistarstrain male rat; from tissue; host or cells: rat brain striatum (Wistar, male), membrane fraction
Procedure: as §1
[^3 H]spiperone binding assay
The affinity of the compounds of this invention to the dopamine 2 receptor was determined on the basis of the ability to substitute [^3 H] spiperone from stratal membrane fractions prepared from the brain a Wistarstrain male rat.
as §2, with “striatum” for “frontal cortex”, “50” for “100”
as §3, with “The stria” for “The frontal cortex”, “weight 20” for “weight 1”, “and 0.5” for “and 1”, “H] spiperone” for “H] ketanserin”
as §4, with “(+) butaclamol.” for “methysergide.”, “IC50.” for “IC5.”

in vivo = settings: mouse, in vivo, po
Procedure: By using male ddY-strain 5-week old mice (3 to 4 per group), the compounds of general formula (1) were each administered orally or intraperitoneally as a solution in saline or as a suspension in methyl cellulose, and 24 hours after the administration, the toxicity of the compounds was evaluated.

Purkinje fiber = test: Effect on APD (APD75, field-stimulated right ventricular free wall); assay type: cell-based, adult mongrel dog; settings: Canis lupus familiaris, purkinje, 20 min, 20 minutes incubation, 37° C., 1 Hz, control before drug = 100%, read-out: APD75 % (percent change in APD75); for activation at 1 µg/mL: dose 1 μg/ml; for activation at 3 µg/mL: dose 3 μg/ml; for activation at 10 µg/mL: dose 10 μg/ml
Procedure: The pharmacological effects of the compounds of this invention represented by general formula (1) were studied. By using the heart of an adult mongrel dog, the activity of the compounds of general formula (1) were tested in vitro and in vivo. The heart of an anaethetized dog was extracted and suspended in a chamber at 37° C. in Tyrode's solution. The drug was added to Tyrode's solution being perfused through the heart specimen, and electrophysiological effects of the drug on cardiac action potential duration (APD) and maximum rate of depolarization were studied. An anaethetized dog was cut open at the chest.
An adult mongrel dog was anaethetized with intravenous administration of pentobarbital, 30 mg/kg. The heart was quickly removed, and the right ventricular free wall was dissected in the Tyrode's solution. The right ventricular free wall was fixed within an incubator at 37° C., and field stimulation at 1 Hz was carried out. Intracellular potentials were measured by piercing glass microelectrodes (10-20 megaohms) into the Purkinje fiber and the wave form of cardiac action potential drawn on an oscilloBraun tube via an amplifier was analyzed by a computer. Value of APD was obtained at 75% of full repolarization (APD75). The drug was added to Tyrode's solution (20 ml) perfused through the specimen. The effect of the drug was expressed by a percent change in APD75 after incubation for 20 minutes with the control value of APD before application of the drug being taken as 100%.

atrial fibrillation = test: Atrial fibrillation model; assay type: in vivo, mongrel dog; settings: dose of 0.3 to 3 mg/kg or 1 to 10 mg/kg
Description: Furthermore, the anaethetized dog was cut open at the chest. Bipolar electrodes were sutured to the right atrial surface, and stimulation electrodes were attached to the vagus nerves at both sides of the cervical region. Atrial fibrillation was induced by the method of Goldberger et al. A. L. Goldberger et al.: […] Further, the anaethetized dog was cut open at the chest. Left anterior descending coronary artery was ligated, and ninety minutes later, reperfused to prepare a myocardial infarction which was liable to develop tachycardia. At that time, a bipolar plunge electrode was placed in the interventricular septum near the ligated site. Several days after the operation, programmed electrical stimulation was applied to induce tachycardia. The effect of the drug to cause disappear of tachycardia was examined. In an anaethetized and open-chested mongrel dog, bipolar electrodes (silver and silver-silver chloride electrodes) were sutured respectively to the right atrium for stimulation and recording. The vagus nerves on both sides of the cervical region were isolated and cut, and stimulation electrodes were attached to the peripheral end. The atrial fibrillation was induced in accordance with the method of Goldberger et al. After cardiac arrest induced by stimulating the vagus nerves, electrical stimulation was applied to the right atria at a high frequency.

[1] = tested on: right ventricle (effective refractory period); test: Activity on ERP of the right ventricle; assay type: in vivo, adult mongrel dog; settings: Canis lupus familiaris, iv, ERP before drug = 100%, read-out: ERP % (ERP prolonging activity); for change in vivo at 0.1 mg/kg: 0.1 mg/kg i.v.; for change in vivo at 0.3 mg/kg: 0.3 mg/kg i.v.; for change in vivo at 1 mg/kg: 1 mg/kg i.v.; for change in vivo at 3 mg/kg: 3 mg/kg i.v.
Procedure: The pharmacological effects of the compounds of this invention represented by general formula (1) were studied. By using the heart of an adult mongrel dog, the activity of the compounds of general formula (1) were tested in vitro and in vivo. The heart of an anaethetized dog was extracted and suspended in a chamber at 37° C. in Tyrode's solution. The drug was added to Tyrode's solution being perfused through the heart specimen, and electrophysiological effects of the drug on cardiac action potential duration (APD) and maximum rate of depolarization were studied. An anaethetized dog was cut open at the chest. […] In an anaethetized and open-chested adult mongrel dug, a silver-silver chloride electrode was sutured to the right ventricle, and ventricular pacing was performed at a stimulation interval of 400 msec for a duration time of 4 msec, twice diastolic threshold. Then, a small amount of alcohol was injected through the sinus artery to extinguish the pacemaker activity, and under ventricular pacing, ERP was measured. Ten stimulations were taken as one train, and the interval between trains when the response to the first stimulation disappeared was defined as ERP. […] ERP before drug administration (intravenously or intraduodenally) was taken as 100%, and ERP prolonging activity of the drugs was expressed by %.

[2] = LD50 p.o., p.o., 24 hours after administration, male ddY mice

T1 sequence (P14842 whole entry): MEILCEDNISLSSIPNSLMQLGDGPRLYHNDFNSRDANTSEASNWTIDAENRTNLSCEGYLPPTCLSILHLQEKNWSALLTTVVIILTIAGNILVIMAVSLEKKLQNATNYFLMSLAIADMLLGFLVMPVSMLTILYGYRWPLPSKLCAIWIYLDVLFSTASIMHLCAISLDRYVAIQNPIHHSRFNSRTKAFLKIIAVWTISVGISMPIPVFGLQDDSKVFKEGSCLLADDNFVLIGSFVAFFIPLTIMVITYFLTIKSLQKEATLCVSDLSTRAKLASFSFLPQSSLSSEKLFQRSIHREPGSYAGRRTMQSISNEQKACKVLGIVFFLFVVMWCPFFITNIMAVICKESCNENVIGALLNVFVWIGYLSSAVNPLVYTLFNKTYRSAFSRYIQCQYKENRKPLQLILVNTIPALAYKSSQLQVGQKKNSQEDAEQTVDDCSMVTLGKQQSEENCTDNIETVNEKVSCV
T2 sequence (P61169 whole entry): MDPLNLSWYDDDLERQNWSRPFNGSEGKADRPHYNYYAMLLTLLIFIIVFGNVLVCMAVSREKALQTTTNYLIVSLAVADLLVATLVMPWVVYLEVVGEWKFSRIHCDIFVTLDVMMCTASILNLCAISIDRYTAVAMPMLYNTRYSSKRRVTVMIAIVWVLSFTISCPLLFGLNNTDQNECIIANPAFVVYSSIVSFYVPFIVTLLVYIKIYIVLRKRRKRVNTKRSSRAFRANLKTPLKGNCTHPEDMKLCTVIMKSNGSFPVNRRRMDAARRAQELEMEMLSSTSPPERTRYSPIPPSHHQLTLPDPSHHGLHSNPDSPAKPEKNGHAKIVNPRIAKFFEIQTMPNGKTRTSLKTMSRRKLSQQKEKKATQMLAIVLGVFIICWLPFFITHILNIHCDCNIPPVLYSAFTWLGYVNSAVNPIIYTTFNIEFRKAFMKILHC

For `O=C1COc2cc(OCCCN3CCC4(CC3)C(=O)NCN4c3ccccc3)ccc21` [Compound 1246], the Ki (serotonine 2 receptor) was greater than 600 nM and the Ki (dopamine 2 receptor) was greater than 400 nM.

Work on `O=C1COc2cc(OCCCN3CCC(O)(c4ccccc4)CC3)ccc21` [Compound 1150] yielded a Ki (serotonine 2 receptor) of 306 nM, an LD50 at 24 h (in vivo) greater than 300 mg/kg and a Ki (dopamine 2 receptor) greater than 400 nM. For the same molecule, the activation at 1 µg/mL (Purkinje fiber) was 4%, the activation at 3 µg/mL (Purkinje fiber) was 12% and the activation at 10 µg/mL (Purkinje fiber) was 14%.

In the case of `O=C1COc2cc(OCCCN3CCN(Cc4ccccc4)CC3)ccc21` [Compound 1182], the Ki (serotonine 2 receptor) is reported as greater than 600 nM and the Ki (dopamine 2 receptor) is reported as greater than 400 nM.

In the case of `CCCCN(CCCC)CCCOc1ccc2c(c1)OCC2=O` [Compound 144], the “disappearance of atrial fibrillation” value (atrial fibrillation) is reported as “could cause disappearance fibrillation”, the change in vivo at 0.1 mg/kg [1] is reported as 10 ± 1.7% and the change in vivo at 0.3 mg/kg [1] is reported as 15.5 ± 4.9%. The change in vivo at 1 mg/kg [1] was 21.1 ± 6.2%, the activation at 1 µg/mL (Purkinje fiber) was 13% and the activation at 3 µg/mL (Purkinje fiber) was 26%. For the same molecule, the activation at 10 µg/mL (Purkinje fiber) was 33%.

With `CN1CCN(CCCOc2ccc3c(c2)OCC3=O)CC1` [Compound 1178] the Ki (serotonine 2 receptor) was greater than 600 nM and the Ki (dopamine 2 receptor) was greater than 400 nM.

Molecule `O=C1NC(=O)c2cc(OCCCN3CCC(Cc4ccccc4)CC3)ccc21` [Compound 1334] has a Ki (serotonine 2 receptor) of 227 nM and a Ki (dopamine 2 receptor) greater than 400 nM.

In the case of `O=C1COc2cc(OCCCN3CCc4ccccc4C3)ccc21` [Compound 1162], the Ki (serotonine 2 receptor) is reported as greater than 600 nM and the Ki (dopamine 2 receptor) is reported as greater than 400 nM.

`CS(=O)(=O)NC1CCN(CCCOc2ccc3c(c2)OCC3=O)CC1` [Compound 1286] gave a Ki (serotonine 2 receptor) of 475 nM, an LD50 at 24 h (in vivo; [2]) greater than 300 mg/kg and a Ki (dopamine 2 receptor) greater than 400 nM. The change in vivo at 0.1 mg/kg [1] was 8.3%, the change in vivo at 0.3 mg/kg [1] was 8.3% and the change in vivo at 1 mg/kg [1] was 16.6%. For the same molecule, the change in vivo at 3 mg/kg [1] was 16.6% and the activation at 3 µg/mL (Purkinje fiber) was 7%.

Work on `O=C1COc2cc(OCCCN3CCC4(CC3)OCCO4)ccc21` [Compound 1298] yielded a Ki (serotonine 2 receptor) of 382 nM, an LD50 at 24 h (in vivo; [2]) greater than 300 mg/kg and a Ki (dopamine 2 receptor) greater than 400 nM.

`O=c1cc(-c2ccccc2)c2ccc(OCCCN3CCC(Cc4ccccc4)CC3)cc2o1` [Compound 1330] showed a Ki (serotonine 2 receptor) greater than 600 nM and a Ki (dopamine 2 receptor) greater than 400 nM.

`O=C1COc2cc(OCCCN3CCC(c4ccccc4)CC3)ccc21` [Compound 1138] showed a Ki (serotonine 2 receptor) of 173 nM and a Ki (dopamine 2 receptor) of 329 nM.

`O=C1COc2cc(OCCCN3CCC(O)(c4ccc(Cl)cc4)CC3)ccc21` [Compound 1154] gave a Ki (serotonine 2 receptor) greater than 298 nM and a Ki (dopamine 2 receptor) greater than 400 nM.

With `O=C1COc2cc(OCCCN3CCN(c4ccccn4)CC3)ccc21` [Compound 1264] the Ki (serotonine 2 receptor) was greater than 600 nM and the Ki (dopamine 2 receptor) was greater than 400 nM.

In the case of `CC1CCCN(CCCOc2ccc3c(c2)OCC3=O)C1` (centres unmarked) [Compound 1118], the “disappearance of atrial fibrillation” value (atrial fibrillation) is reported as “could cause disappearance fibrillation”, the LD50 at 24 h (in vivo; [2]) is reported as greater than 300 mg/kg and the change in vivo at 0.1 mg/kg [1] is reported as 5%. The change in vivo at 0.3 mg/kg [1] was 9%, the change in vivo at 1 mg/kg [1] was 22% and the change in vivo at 3 mg/kg [1] was 26%. The activation at 1 µg/mL (Purkinje fiber) was 10%, the activation at 3 µg/mL (Purkinje fiber) was 13% and the activation at 10 µg/mL (Purkinje fiber) was 24%.

In the case of `O=C1COc2cc(OCCCN3CCC(N4CCCCC4)CC3)ccc21` [Compound 1228], the Ki (serotonine 2 receptor) is reported as greater than 600 nM and the Ki (dopamine 2 receptor) is reported as greater than 400 nM.

Work on `CN1C(=O)Cc2cnc(N3CCN(CCCOc4ccc5c(c4)OCC5=O)CC3)nc21` [Compound 1186] yielded a Ki (serotonine 2 receptor) of 315 nM and a Ki (dopamine 2 receptor) greater than 400 nM.

With `O=C1COc2cc(OCCCN(Cc3ccccc3)Cc3ccccc3)ccc21` [Compound 176] the Ki (serotonine 2 receptor) was greater than 600 nM and the Ki (dopamine 2 receptor) was greater than 400 nM.

`CC(=O)Oc1coc2cc(OCCCN3CCC(Cc4ccccc4)CC3)ccc12` [Compound 1344] showed a Ki (serotonine 2 receptor) greater than 600 nM and a Ki (dopamine 2 receptor) greater than 400 nM.
